Structures can show the parent of a compound that is named as a salt.

The target in the test is T1, recombinant human CXCR2 (Homo sapiens, UniProt P25025).
T1 construct: TEV protease site; Gal4-VP16 transcription factor
T1 sequence (P25025 1-360): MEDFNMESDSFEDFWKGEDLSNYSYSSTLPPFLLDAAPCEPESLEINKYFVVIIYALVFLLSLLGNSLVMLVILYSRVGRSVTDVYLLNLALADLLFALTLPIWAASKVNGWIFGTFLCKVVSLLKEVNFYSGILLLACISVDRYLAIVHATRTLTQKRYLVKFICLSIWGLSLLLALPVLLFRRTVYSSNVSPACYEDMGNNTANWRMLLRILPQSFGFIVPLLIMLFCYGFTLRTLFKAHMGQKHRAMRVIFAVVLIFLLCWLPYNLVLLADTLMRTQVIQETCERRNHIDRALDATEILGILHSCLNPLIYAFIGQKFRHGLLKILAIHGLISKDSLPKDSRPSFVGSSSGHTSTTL
Description: CXCR2 Tango assay. The class given is cell-based. As to conditions: mean pIC50 of multiple test results; stimulated with 80 nM hCXCL1; reporter gene blue/green emission ratio; read-out: pIC50 (CXCR2 Tango assay) (converted). From the text: The assay measures ligand-induced activation of the receptor CXCR2 in a stable cell line containing the recombinant human CXCR2 linked to a TEV protease site and a Gal4-VP16 transcription factor (Invitrogen). Ligand binding to the receptor results in the recruitment of arrestin proteins (tagged with protease) to the receptor and triggers the release of a tethered transcription factor. The transcription factor enters the nucleus and activates the transcription of the reporter gene. The ability of a compound to inhibit CXCR2 activation is indirectly assessed by measuring the reporter gene activity.
A vial of cryopreserved cells was removed from liquid nitrogen and rapidly thawed in a water bath at 37° C. with gentle agitation. The contents of the vial were transferred drop-wise into Thawing Medium in a sterile 15 ml conical tube and then centrifuged at 1000 rpm for 4-5 min. Then the cell pellets were resuspended in Assay Medium at a density of ˜200,000 cells/ml. All test compounds were dissolved in DMSO at a concentration of 10 mM and were prepared in 100% DMSO to provide 10 point dose response curves. A reference CXCR2 antagonist was added to wells in row 2, columns 1-5 & 7-11. Exemplified compounds 1-4, 7, 8-10, 13-22, 24-26, 28-30, 32, 33, 36, 37, 40, 42-44. 95-110, 115-118, 120, 121, 125, 126, 129-134, 137, 138, 140, 142, 147-149, 153-157, 159-162, 163-166, 168, 170, 172, 174-180 and 202 were tested using the CXCR2 antagonist sodium 3-chloro-6-(3-(2,3-dichlorophenyl)ureido)-2-sulfamoylphenolate as reference compound (Reference Compound 1) (published International patent application WO2002/079122). […] Test compounds were added to wells in row 2, columns 13-17 & 19-23 and rows 3-15, columns 1-5 & 7-11/13-17 & 19-23 (columns 6 and 18 as positive controls and un-stimulated controls respectively; columns 12 and 24 as cell-free control). Compounds in solution were added to the assay plate (Greiner 781090) using an Echo (Labcyte) concentration-response program (50 nl/well). The cell-free, un-stimulated and positive controls were loaded with 50 nl/well pure DMSO to ensure that the DMSO concentration was constant across the plate for all assays. Using Multi-drop Combi (Thermo) with standard cassette, 50 μl of Assay Medium was added to each well in the cell-free controls (columns 12 and 24); 50 μl of the cell suspension without hCXCL1 (a CXCR2 ligand) was added to each well in column 18 of the plate (˜10,000 cells per well); and 50 μl of the cell suspension with 80 nM hCXCL1 was added to the rest of wells of the plate (˜10,000 cells per well). The cells were incubated overnight at 37° C./5% CO2. 10 μl of 6× substrate mixture (LiveBLAzer™-FRET B/G substrate (CCF4-AM) Cat # K1096 from Invitrogen, Inc.) was added to each well using Multi-drop Combi (Thermo) with small-tube cassette and the plates incubated at room temperature for 2 h in the dark. The plate was finally read on EnVision using one excitation channel (409 nm) and two emission channels (460 nm and 530 nm).
The blue/green emission ratio (460 nm/530 nm) was calculated for each well, by dividing the background-subtracted Blue emission values by the background-subtracted Green emission values. The dose response curve was based on sigmoidal dose-response model. All ratio data was normalized based upon the maximum emission ratio of positive control (hCXCL1) and minimum emission ratio of negative control (DMSO) on each plate. The intrinsic activity (IA) of each compound would be the normalized percentage of its maximum response after curve fitting.
All exemplified compounds (except for Compounds 203 and 204) were tested in the CXCR2 Tango assay or a similar assay described above. The data mentioned below represents a mean pIC 50 value of multiple test results. It is understood that the data illustrated below may have reasonable variation depending on the specific conditions and procedures used by the person conducting the testing.
On the technique in general: In a reporter assay the amount or activity of a reporter protein is the signal.
For the molecule `CC(c1ccccn1)S(=O)(=O)c1c(Cl)ccc(NC(=O)NC2CCC=C2Cl)c1O` (stereo not drawn) [Compound 26, 1-(4-chloro-2-hydroxy-3-((1-(pyridin-2-yl)ethyl)sulfonyl)phenyl)-3-(2-chlorocyclopent-2-en-1-yl)urea], the IC50 was ≤ 10 nM.
The value for `CC1=CCCC1NC(=O)Nc1ccc(Cl)c(S(=O)(=O)C(C)c2ncccn2)c1O` (stereo not drawn) [Compound 29, 1-(4-chloro-2-hydroxy-3-((1-(pyrimidin-2-yl)ethyl)sulfonyl)phenyl)-3-(2-methylcyclopent-2-en-1-yl)urea, trifluoroacetic acid salt] was ≤ 10 nM; that for `CC(c1ncccn1)S(=O)(=O)c1c(Cl)ccc(NC(=O)NC2CCC=C2Cl)c1O` (stereo not drawn) [Compound 30, 1-(4-chloro-2-hydroxy-3-((1-(pyrimidin-2-yl)ethyl)sulfonyl)phenyl)-3-(2-chlorocyclopent-2-en-1-yl)urea] was ≤ 10 nM.
The value for `CC1=CCC[C@H]1NC(=O)Nc1ccc(Cl)c(S(=O)(=O)C(C)CO)c1O` (stereo partly drawn) [Compound 34, 1-(4-chloro-2-hydroxy-3-((1-hydroxypropan-2-yl)sulfonyl)phenyl)-3-((R)-2-methylcyclopent-2-en-1-yl)urea] was ≤ 10 nM.
The same measure for `CC(F)(F)S(=O)(=O)c1c(Cl)ccc(NC(=O)NC2C=CCC2)c1O` (stereo not drawn) [Compound 36, 1-(4-chloro-3-((1,1-difluoroethyl)sulfonyl)-2-hydroxyphenyl)-3-(cyclopent-2-en-1-yl)urea]: ≤ 10 nM; for `CC(F)(F)S(=O)(=O)c1c(Cl)ccc(NC(=O)NC2CCC=C2Cl)c1O` (stereo not drawn) [Compound 37, 1-(4-chloro-3-((1,1-difluoroethyl)sulfonyl)-2-hydroxyphenyl)-3-(2-chlorocyclopent-2-en-1-yl)urea]: ≤ 1 nM.
Turning to `CC1(S(=O)(=O)c2c(Cl)ccc(NC(=O)N[C@@H]3CCC=C3Cl)c2O)CC(O)C1` (stereo partly drawn) [Compound 38, (R)-1-(4-chloro-2-hydroxy-3-((3-hydroxy-1-methylcyclobutyl)sulfonyl)phenyl)-3-(2-chlorocyclopent-2-en-1-yl)urea], the IC50 was ≤ 1 nM.
The same measure for `CC1(S(=O)(=O)c2c(Cl)ccc(NC(=O)NC3CCC=C3Cl)c2O)CCOCC1` (stereo not drawn) [Compound 44, 1-(4-chloro-2-hydroxy-3-((4-methyltetrahydro-2H-pyran-4-yl)sulfonyl)phenyl)-3-(2-chlorocyclopent-2-en-1-yl)urea]: ≤ 10 nM.
Take `CC1=CCC[C@H]1NC(=O)Nc1ccc(Cl)c(S(=O)(=O)[C@@H]2CCCC[C@H]2O)c1O` [Compound 46, 1-(4-chloro-2-hydroxy-3-((trans-2-hydroxycyclohexyl)sulfonyl)phenyl)-3-((R)-2-methylcyclopent-2-en-1-yl)urea]: the IC50 was ≤ 1 nM.
The value for `CC1=CCC[C@H]1NC(=O)Nc1ccc(Cl)c(S(=O)(=O)[C@H]2C[C@H](C(F)F)C2)c1O` [Compound 48, 1-(4-chloro-3-((trans-3-(difluoromethyl)cyclobutyl)sulfonyl)-2-hydroxyphenyl)-3-((R)-2-methylcyclopent-2-en-1-yl)urea] was ≤ 1 nM; that for `CC1=CCC[C@H]1NC(=O)Nc1ccc(Cl)c(S(=O)(=O)[C@H]2C[C@H](F)C2)c1O` [Compound 50, 1-(4-chloro-3-((trans-3-fluorocyclobutyl)sulfonyl)-2-hydroxyphenyl)-3-((R)-2-methylcyclopent-2-en-1-yl)urea] was ≤ 1 nM.
The same measure for `CC1=CCC[C@H]1NC(=O)Nc1ccc(Cl)c(S(=O)(=O)C2CCC[C@H](O)C2)c1O` (stereo partly drawn) [Compound 52, 1-(4-chloro-2-hydroxy-3-((trans-3-hydroxycyclohexyl)sulfonyl)phenyl)-3-((R)-2-methylcyclopent-2-en-1-yl)urea]: ≤ 1 nM; for `CC1=CCC[C@H]1NC(=O)Nc1ccc(Cl)c(S(=O)(=O)C(C)(C)[C@@H]2CCOC2)c1O` [Compound 55, 1-(4-chloro-2-hydroxy-3-((2-((R)-tetrahydrofuran-3-yl)propan-2-yl)sulfonyl)phenyl)-3-((R)-2-methylcyclopent-2-en-1-yl)urea]: ≤ 10 nM; for `CC1=CCC[C@H]1NC(=O)Nc1ccc(Cl)c(S(=O)(=O)C(C)(C)C(F)(F)F)c1O` [Compound 58, (R)-1-(4-chloro-2-hydroxy-3-((1,1,1-trifluoro-2-methylpropan-2-yl)sulfonyl)phenyl)-3-(2-methylcyclopent-2-en-1-yl)urea]: ≤ 1 nM.
The same measure for `CC1=CCC[C@H]1NC(=O)Nc1ccc(Cl)c(S(=O)(=O)C(C)(C)C2COC2)c1O` [Compound 61, (R)-1-(4-chloro-2-hydroxy-3-((2-(oxetan-3-yl)propan-2-yl)sulfonyl)phenyl)-3-(2-methylcyclopent-2-en-1-yl)urea]: ≤ 1 nM; for `CC1=CCC[C@H]1NC(=O)Nc1ccc(Cl)c(S(=O)(=O)C(F)(F)c2ccccn2)c1O` [Compound 63, (R)-1-(4-chloro-3-((difluoro(pyridin-2-yl)methyl)sulfonyl)-2-hydroxyphenyl)-3-(2-methylcyclopent-2-en-1-yl)urea, trifluoroacetic acid salt]: ≤ 1 nM; for `CC1=CCC[C@H]1NC(=O)Nc1ccc(Cl)c(S(=O)(=O)C2(C)CC3(COC3)C2)c1O` [Compound 65, (R)-1-(4-chloro-2-hydroxy-3-((6-methyl-2-oxaspiro[3.3]heptan-6-yl)sulfonyl)phenyl)-3-(2-methylcyclopent-2-en-1-yl)urea]: ≤ 10 nM.
As to `CC1=CCC[C@H]1NC(=O)Nc1ccc(Cl)c(S(=O)(=O)C2(C)CCN(C3CCC3)CC2)c1O` [Compound 67, (R)-1-(4-chloro-3-((1-cyclobutyl-4-methylpiperidin-4-yl)sulfonyl)-2-hydroxyphenyl)-3-(2-methylcyclopent-2-en-1-yl)urea, trifluoroacetic acid salt], the IC50 is ≤ 10 nM.
The same measure for `CC1=CCC[C@H]1NC(=O)Nc1ccc(Cl)c(S(=O)(=O)C2(F)CCN(C3CCC3)CC2)c1O` [Compound 73, (R)-1-(4-chloro-3-((1-cyclobutyl-4-fluoropiperidin-4-yl)sulfonyl)-2-hydroxyphenyl)-3-(2-methylcyclopent-2-en-1-yl)urea, trifluoroacetic acid salt]: ≤ 1 nM; for `CC1=CCC[C@H]1NC(=O)Nc1ccc(Cl)c(S(=O)(=O)C2(F)CCOC2)c1O` (stereo partly drawn) [Compound 74, 1-(4-chloro-3-((3-fluorotetrahydro-furan-3-yl)sulfonyl)-2-hydroxyphenyl)-3-((R)-2-methylcyclopent-2-en-1-yl)urea]: ≤ 1 nM.
The value for `CC1=CCC[C@H]1NC(=O)Nc1ccc(Cl)c(S(=O)(=O)C2CC3(COC3)C2)c1O` [Compound 77, (R)-1-(3-(2-oxaspiro[3.3]heptan-6-ylsulfonyl)-4-chloro-2-hydroxyphenyl)-3-(2-methylcyclopent-2-en-1-yl)urea] was ≤ 1 nM.

For the origin of these results see patent US10106515B2, “1-(cyclopent-2-en-1-yl)-3-(2-hydroxy-3-(arylsulfonyl)phenyl)urea derivatives as CXCR2 inhibitors” (GLAXOSMITHKLINE INTELLECTUAL PROPERTY DEVELOPMENT LIMITED, priority 2014, dated 2018).
